Assay results: publication PMC5297880 (Clinical Pharmacology in Drug Development, 2016)
Read-outs that look alike come from different tables or passages of the source. Blank lines part the entries; values can stand above or below the molecule they belong to.

Assays:
[1] = type: in vivo, human; details: for decrease in mean AUCτ in presence vs absence of isavuconazole / decrease in mean Cmax in presence vs absence of isavuconazole: Part 2, isavuconazole 200 mg; for AUC / Cmax: both, human, plasma, oral; for AUC: AUCτ, day 13 (12 hours), mean (SD); for Cmax: day 13, mean (SD)
CYP2B6 [2] = details: cultured human hepatocytes; cited from earlier work
OCT2 = details: [14C]metformin substrate, ref data on file, cited from earlier work
CYP2C8 [3] = details: CYP2C8-expressing human liver microsomes; cited from earlier work
P-gp = details: read-out: IC50 P-gp inhibition; [3H]digoxin substrate; ref data on file; cited from earlier work
MATE1 = details: read-out: IC50 MATE1 inhibition; [14C]metformin substrate; ref data on file; cited from earlier work
CYP3A4 [4] = details: CYP3A4-expressing human liver microsomes; cited from earlier work
[5] = Safety: treatment-emergent adverse events in healthy subjects; type: in vivo, human
UGT2B7 = details: read-out: IC50 for morphine 3-glucuronidation [UGT2B7]; human liver microsomes; cited from earlier work
UGT1A9 = details: read-out: IC50 for propofol glucuronidation [UGT1A9]; human liver microsomes; cited from earlier work
CYP2B6 [6] = details: CYP2B6-expressing human liver microsomes; cited from earlier work
[7] = type: in vivo, human; details: for AUCτ geometric least-squares mean ratio (90%CI) / Cmax geometric least-squares mean ratio (90%CI): lopinavir/ritonavir plus isavuconazole to isavuconazole alone; for AUC: AUCτ, day 13 (24 hours), mean (SD)
CYP2B6 [8] = details: human liver microsomes; S-mephenytoin demethylation; P < .01; ref data on file; cited from earlier work
CYP3A5 = details: CYP3A5-expressing human liver microsomes; cited from earlier work
UGT1A1 = details: read-out: IC50 for 17β-estradiol 3-glucuronidation [UGT1A1]; human liver microsomes; cited from earlier work
CYP2C8 [9] = details: human liver microsomes; paclitaxel hydroxylation; P < .05; ref data on file; cited from earlier work
CYP3A4 [10] = details: cultured human hepatocytes; cited from earlier work
CYP3A7 = details: CYP3A7-expressing human liver microsomes; cited from earlier work
[11] = Part 2, lopinavir/ritonavir plus isavuconazole to lopinavir/ritonavir alone
[12] = Part 2, lopinavir/ritonavir 400/100 mg + isavuconazole 200 mg, n = 16
[13] = Part 2, lopinavir/ritonavir 400/100 mg alone, n = 18

- decrease in mean AUCτ in presence vs absence of isavuconazole [1]: 27%
- decrease in mean Cmax in presence vs absence of isavuconazole [1]: 23%
- AUCτ geometric least-squares mean ratio (90%CI) [1, 11]: 73 (56, 96) %
- Cmax geometric least-squares mean ratio (90%CI) [1, 11]: 77 (62, 95) %
- AUC [1, 12]: 73300 ng·h/mL
- AUC [1, 13]: 91000 ng·h/mL
Structure (SMILES): Cc1cccc(C)c1OCC(=O)N[C@@H](Cc1ccccc1)[C@@H](O)C[C@H](Cc1ccccc1)NC(=O)[C@H](C(C)C)N1CCCNC1=O [Lopinavir, lopinavir]

Structure (SMILES): C[C@@H](c1nc(-c2ccc(C#N)cc2)cs1)[C@](O)(Cn1cncn1)c1cc(F)ccc1F [Isavuconazole, isavuconazole]
- increase of CYP2B6 activity (CYP2B6 [2]): 13.4 fold
- increase of CYP2B6 mRNA (CYP2B6 [2]): 11.4 fold
- IC50 (OCT2; read-out: IC50 OCT2 inhibition): 1.97 µM
- Ki (OCT2; read-out: Ki OCT2 inhibition): 0.69 µM
- % remaining (CYP2C8 [3]): > 98 % remaining
- IC50 (P-gp): 25.7 µM
- IC50 (MATE1): 6.31 µM
- % remaining (CYP3A4 [4]): 33.8 % remaining
- subjects who experienced TEAEs ([5]; Part 1 (isavuconazole 100 mg), all mild): 2 (33.3%) n (%)
- TEAEs overall, subjects ([5]; Part 2): 11 (61.1%) n (%)
- subjects with TEAEs in system organ class gastrointestinal disorders ([5]; Part 2, text): 16.7%
- IC50 (UGT2B7): 44 µM
- IC50 (UGT1A9): 19 µM
- % remaining (CYP2B6 [6]): > 98 % remaining
- AUCτ geometric least-squares mean ratio (90%CI) ([7]; Part 1 (isavuconazole 100 mg)): 213 (174, 262) %
- Cmax geometric least-squares mean ratio (90%CI) ([7]; Part 1 (isavuconazole 100 mg)): 196 (155, 248) %
- increase in mean AUCτ in presence vs absence of lopinavir/ritonavir ([7]; Part 1, isavuconazole 100 mg): 113%
- increase in mean Cmax in presence vs absence of lopinavir/ritonavir ([7]; Part 1, isavuconazole 100 mg): 96%
- AUCτ geometric least-squares mean ratio (90%CI) ([7]; Part 2 (isavuconazole 200 mg)): 196 (164, 235) %
- Cmax geometric least-squares mean ratio (90%CI) ([7]; Part 2 (isavuconazole 200 mg)): 174 (146, 208) %
- increase in mean AUCτ in presence vs absence of lopinavir/ritonavir ([7]; Part 2, isavuconazole 200 mg): 96%
- increase in mean Cmax in presence vs absence of lopinavir/ritonavir ([7]; Part 2, isavuconazole 200 mg): 74%
- Tmax ([7]; Part 2, isavuconazole 200 mg + lopinavir/ritonavir, day 13, median (range)): 3.0 (1.0‐4.0) hours
- Tmax ([7]; both, human, plasma, oral, 100 mg): 3 h
- Tmax ([7]; both, human, plasma, oral, 200 mg): 3 h
- AUC ([7]; both, human, plasma, oral, Part 1, isavuconazole 100 mg + lopinavir/ritonavir 400/100 mg BID, n = 6): 116000 ng·h/mL
- AUC ([7]; both, human, plasma, oral, Part 2, isavuconazole 200 mg + lopinavir/ritonavir 400/100 mg BID, n = 16): 222000 ng·h/mL
- correlation (r) of isavuconazole metabolism with CYP2B6 activity (CYP2B6 [8]): 0.65
- % remaining (CYP3A5): 68.4 % remaining
- IC50 (UGT1A1): 9 µM
- correlation (r) of isavuconazole metabolism with CYP2C8 activity (CYP2C8 [9]): 0.57
- increase of CYP3A4 activity (CYP3A4 [10]): 3.4 fold
- increase of CYP3A4 mRNA (CYP3A4 [10]): 6.4 fold
- % remaining (CYP3A7): > 98 % remaining

- decrease in mean AUCτ in presence vs absence of isavuconazole [1]: 31%
- decrease in mean Cmax in presence vs absence of isavuconazole [1]: 33%
- AUC [1, 12]: 4000 ng·h/mL
- AUC [1, 13]: 5500 ng·h/mL
- Cmax ([1]; Part 2, lopinavir/ritonavir + isavuconazole): 800 ng/mL
- Cmax ([1]; Part 2, lopinavir/ritonavir alone): 1200 ng/mL
Structure (SMILES): CC(C)c1nc(CN(C)C(=O)N[C@H](C(=O)N[C@@H](Cc2ccccc2)C[C@H](O)[C@H](Cc2ccccc2)NC(=O)OCc2cncs2)C(C)C)cs1 [Ritonavir, ritonavir]
